Here are results for 34 compounds from patent US12195490B2, “STRAD-binding agents and uses thereof” (The Regents of the University of California, priority 2020, dated 2025).

One test deals with T1, LKB1 (Homo sapiens, UniProt Q15831+Q7RTN6).
T1 sequence (Q15831 1-433): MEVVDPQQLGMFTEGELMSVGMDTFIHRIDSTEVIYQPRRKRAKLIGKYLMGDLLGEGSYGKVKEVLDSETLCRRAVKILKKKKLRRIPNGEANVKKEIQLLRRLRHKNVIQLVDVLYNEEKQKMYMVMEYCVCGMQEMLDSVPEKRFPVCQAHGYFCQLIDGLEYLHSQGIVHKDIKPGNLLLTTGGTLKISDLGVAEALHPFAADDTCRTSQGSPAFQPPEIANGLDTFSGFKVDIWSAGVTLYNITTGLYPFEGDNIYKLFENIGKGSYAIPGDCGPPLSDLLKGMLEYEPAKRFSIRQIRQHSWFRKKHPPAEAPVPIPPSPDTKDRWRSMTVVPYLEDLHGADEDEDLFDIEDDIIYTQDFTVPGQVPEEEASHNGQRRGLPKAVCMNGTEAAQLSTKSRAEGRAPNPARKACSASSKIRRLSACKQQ
T1 sequence (Q7RTN6 1-431): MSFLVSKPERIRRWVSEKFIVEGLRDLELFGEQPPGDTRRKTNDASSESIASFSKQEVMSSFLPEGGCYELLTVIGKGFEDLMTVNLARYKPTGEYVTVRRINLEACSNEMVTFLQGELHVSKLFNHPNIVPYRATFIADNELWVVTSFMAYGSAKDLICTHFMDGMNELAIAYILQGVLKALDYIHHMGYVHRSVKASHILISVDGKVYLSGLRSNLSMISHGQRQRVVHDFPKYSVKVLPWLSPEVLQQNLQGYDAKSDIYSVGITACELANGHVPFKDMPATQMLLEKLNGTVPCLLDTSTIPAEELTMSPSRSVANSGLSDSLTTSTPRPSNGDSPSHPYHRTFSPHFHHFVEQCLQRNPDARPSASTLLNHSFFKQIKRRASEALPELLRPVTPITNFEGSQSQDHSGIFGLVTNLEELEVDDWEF
T1 sequence (Q9Y376 1-341 partner): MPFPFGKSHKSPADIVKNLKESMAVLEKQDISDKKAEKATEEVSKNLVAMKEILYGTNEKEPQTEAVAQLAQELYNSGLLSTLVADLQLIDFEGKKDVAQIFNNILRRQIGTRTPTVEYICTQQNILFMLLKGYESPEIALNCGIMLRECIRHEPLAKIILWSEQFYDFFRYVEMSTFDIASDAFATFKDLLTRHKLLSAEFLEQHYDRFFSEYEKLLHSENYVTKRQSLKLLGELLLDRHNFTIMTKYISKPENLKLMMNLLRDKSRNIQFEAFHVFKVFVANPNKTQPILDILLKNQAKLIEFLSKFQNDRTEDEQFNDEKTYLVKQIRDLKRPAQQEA
Briefly: in vitro LKB1 functional activity. Particulars: APA analogs. The class given is biochemical.

Another test concerns ACHN cell line. Briefly: drug screen of the SelleckChem kinase inhibitor library with and without 5 uM SU-329, Cell-Titer Glo after 5 days. The class given is cell-based. Particulars: kinase inhibitor at 200 nM with and without 5 uM SU329; ACHN cell line; 5 days; Cell-Titer Glo.

As to `CCP(=O)(CC)CS(=O)(=O)c1ccc(NC(=O)c2nc(-c3ccc(C)cc3)cnc2N)cc1` [SU20668-0491, 3-amino-N-(4-((diethylphosphoryl)methylsulfonyl)phenyl)-6-p-tolylpyrazine-2-carboxamide], the “LKB1 % Act. Increase” value at LKB1 is “B (B=399-2000%)”.
Same read-out and setting: for `CC(=O)NS(=O)(=O)c1ccc(NC(=O)c2nc(-c3ccc(C4CCCN4)cc3)cnc2N)cc1` (stereo not shown) [SU20668-0340, N-(4-(N-acetylsulfamoyl)phenyl)-3-amino-6-(4-(pyrrolidin-2-yl)phenyl)pyrazine-2-carboxamide] the value was “D (D=<1000%)”; for `CC(=O)NS(=O)(=O)c1ccc(NC(=O)c2nc(-c3cnc(N)nc3)cnc2N)cc1` [SU20668-0372, N-(4-(N-acetylsulfamoyl)phenyl)-3-amino-6-(2-aminopyrimidin-5-yl)pyrazine-2-carboxamide], “D (D=<1000%)”.
The same measure, in the same setting: for `Cc1ccc(-c2cnc(N)c(C(=O)Nc3ccc(CS(N)(=O)=O)cc3)n2)cc1` [SU20668-0331, 3-amino-N-(4-(sulfamoylmethyl)phenyl)-6-p-tolylpyrazine-2-carboxamide] the value was “C (C=199-1000%)”; for `CNS(=O)(=O)c1ccc(NC(=O)c2nc(-c3ccc(C)cc3)cnc2N)cc1` [SU20668-0286, 3-amino-N-(4-(N-methylsulfamoyl)phenyl)-6-p-tolylpyrazine-2-carboxamide], “C (C=199-1000%)”.
Still for that read-out and setting: in the case of `Cc1ccc(-c2cnc(N)c(C(=O)Nc3ccc([S@SP3](=O)(=O)CP(=O)(O)O)cc3)n2)cc1` [SU20668-0312, (((4-(3-amino-6-(p-tolyl)pyrazine-2-carboxamido)phenyl)sulfonyl)methyl)phosphonic acid] it was “C (C=199-1000%)”; in that of `CCOP(=O)(OCC)C(C)(C)S(=O)(=O)c1ccc(NC(=O)c2nc(-c3ccc(C)cc3)cnc2N)cc1` [SU20668-0486, diethyl 2-(4-(3-amino-6-p-tolylpyrazine-2-carboxamido)phenylsulfonyl)propan-2-ylphosphonate], “B (B=399-2000%)”.
As to `Cc1ccc(-c2cnc(N)c(C(=O)Nc3ccc(S(=O)(=O)CC(=O)O)cc3)n2)cc1` [SU20668-0310, 2-(4-(3-amino-6-p-tolylpyrazine-2-carboxamido)phenylsulfonyl)acetic acid], the “LKB1 % Act. Increase” value at LKB1 is “D (D=<1000%)”.
The same measure, in the same setting: for `CCOP(=O)(O)CS(=O)(=O)c1ccc(NC(=O)c2nc(-c3ccc(C)cc3)cnc2N)cc1` [SU20668-0338, ethyl hydrogen (((4-(3-amino-6-(p-tolyl)pyrazine-2-carboxamido)phenyl)sulfonyl)methyl)phosphonate] the value was “D (D=<1000%)”; for `Cc1ccc(-c2cnc(N)c(C(=O)Nc3ccc(S(=O)(=O)NS(C)(=O)=O)cc3)n2)cc1` [SU20668-0470, 3-amino-N-(4-(N-(methylsulfonyl)sulfamoyl)phenyl)-6-p-tolylpyrazine-2-carboxamide], “D (D=<1000%)”.
Take `CC(=O)NS(=O)(=O)c1ccc(NC(=O)c2nc(-c3ccc4cn[nH]c4c3)cnc2N)cc1` [SU20668-0343, N-(4-(N-acetylsulfamoyl)phenyl)-3-amino-6-(1H-indazol-6-yl)pyrazine-2-carboxamide]: the “LKB1 % Act. Increase” value on LKB1 was “C (C=199-1000%)”.
With `CS(=O)(=O)c1ccc(-c2cnc(N)c(C(=O)Nc3ccc(S(N)(=O)=O)cc3)n2)cc1` [SU20668-0309, 3-amino-6-(4-(methylsulfonyl)phenyl)-N-(4-sulfamoylphenyl)pyrazine-2-carboxamide], the “LKB1 % Act. Increase” value at LKB1 is “C (C=199-1000%)”.
Turning to `CC(=O)NS(=O)(=O)c1ccc(NC(=O)c2nc(-c3csc4ccccc34)cnc2N)cc1` [SU20668-0376, N-(4-(N-acetylsulfamoyl)phenyl)-3-amino-6-(benzo[b]thiophen-3-yl)pyrazine-2-carboxamide], the “LKB1 % Act. Increase” value on LKB1 was “C (C=199-1000%)”.
On the same count and under the same terms, for `COP(=O)(CS(=O)(=O)c1ccc(NC(=O)c2nc(-c3cc(F)ccc3C#N)cnc2N)cc1)OC` [SU20668-0446, dimethyl (4-(3-amino-6-(2-cyano-5-fluorophenyl)pyrazine-2-carboxamido)phenylsulfonyl)methylphosphonate] the value was “D (D=<1000%)”; for `Cc1ccc(-c2cnc(N)c(C(=O)Nc3ccc(S(C)(=N)=O)cc3)n2)cc1` (stereo not shown) [SU20668-0490], “C (C=199-1000%)”.
`O=c1[nH]c2ccc(Cl)cc2c(N[C@@H]2CN3CCC2CC3)c1-c1nc2ccccc2[nH]1` [CHIR-124] returned a log2fc with ACHN cell line of 1.257.
In the test with ACHN cell line, `Oc1cc(O)cc(/C=C/c2ccc(O)c(O)c2)c1` [Piceatannol] gave a log2fc of 0.5447.
Same read-out and setting: for Skepinone-L the value was −0.7997.
Take `Cc1ccc(-n2nc(C(C)(C)C)cc2NC(=O)Nc2ccc(OCCN3CCOCC3)c3ccccc23)cc1` [Doramapimod (BIRB 796)]: the log2fc in the test on ACHN cell line is reported as −0.5477.
Still for that read-out and setting: in the case of `C[S+]([O-])c1ccc(-c2nc(-c3ccc(F)cc3)c(-c3ccncc3)[nH]2)cc1` (stereo not shown) [SB203580] it was −0.09424.
On the same count and under the same terms, for `C[C@H](Nc1ncnc2nc[nH]c12)c1cc2cccc(Cl)c2c(=O)n1-c1ccccc1` [Duvelisib (IPI-145, INK1197)] the value was −0.2128; for `C=CC(=O)Nc1ccc2ncnc(Nc3ccc(OCc4cccc(F)c4)c(Cl)c3)c2c1` [AST-1306, reference compound], 0.0584; for `CS(=O)(=O)CCNCc1ccc(-c2ccc3ncnc(Nc4ccc(OCc5cccc(F)c5)c(Cl)c4)c3c2)o1` [Lapatinib], 0.9499.
On to `CN1CC[C@H](c2c(O)cc(O)c3c(=O)cc(-c4ccccc4Cl)oc23)[C@H](O)C1` [Flavopiridol (Alvocidib)], for which the log2fc in the test on ACHN cell line is recorded as 1.05.
The same measure, in the same setting: for `CC1=C(C(=O)Nc2cc3cn[nH]c3cc2F)C(c2ccc(C(F)(F)F)cc2)CC(=O)N1` (stereo not shown) [GSK429286A] the value was −0.03939; for `Cc1nc(N)sc1-c1ccnc(Nc2ccc(N3CCOCC3)cc2)n1` [CYC116], −0.814; for `COc1cc(Nc2ncc(F)c(Nc3ccc4c(n3)N(COP(=O)(O)O)C(=O)C(C)(C)O4)n2)cc(OC)c1OC` [Fostamatinib (R788)], 0.7242.
The same measure, in the same setting: in the case of `COc1cc2c(Oc3ccc4[nH]c(C)cc4c3F)ncnc2cc1OCCCN1CCCC1` [Cediranib (AZD2171)] it was 0.01224; in that of `CN(C)CCCn1cc(C2=C(c3c[nH]c4ccccc34)C(=O)NC2=O)c2ccccc21` [Bisindolylmaleimide I (GF109203X)], −0.2332.
Take `CO[C@@H](C(=O)N1Cc2[nH]nc(NC(=O)c3ccc(N4CCN(C)CC4)cc3)c2C1)c1ccccc1` [Danusertib (PHA-739358)]: the log2fc in the test with ACHN cell line is reported as −0.1537.
Still for that read-out and setting: for `CS(=O)(=O)N1CCc2c(-c3cnc(N)nc3)nc(N3CCOCC3)nc21` [CH5132799] the value was −1.044; for `Cc1ccc(-c2nn(C(C)(C)C)c3ncnc(N)c23)cc1` [PP1], 0.2956; for `CC(C)(C)c1nc(-c2cccc(NS(=O)(=O)c3c(F)cccc3F)c2F)c(-c2ccnc(N)n2)s1` [Dabrafenib (GSK2118436), dabrafenib, reference compound], −0.314.
KN-62 gave a log2fc in the test on ACHN cell line of −0.07258.
